This test concerns P388 leukemia ip, CD2F1 mice, survival T/C. The test is described as follows: NCI In Vivo Anticancer Drug Screen. Data for tumor model P388 Leukemia (intraperitoneal) in CD2F1 (CDF1) mice. As to conditions: endpoint: median survival time, higher = longer survival. A digest of the protocol: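 Mice carrying the transplanted tumor received test compound or vehicle. Survival was recorded in each group, and the value is the treated-group measurement divided by that of the vehicle-treated control group.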

The mark [1] stands for this setting: dose: 100.0 mg/kg/injection, schedule: Q04DX002 (ip), vehicle: suspension in saline.
Setting [2] is: dose: 200.0 mg/kg/injection, schedule: Q04DX002 (ip), vehicle: suspension in saline.
[3] abbreviates: dose: 400.0 mg/kg/injection, schedule: Q04DX002 (ip), vehicle: suspension in saline.
[4] abbreviates: dose: 100.0 mg/kg/injection, schedule: Q04DX003 (ip), vehicle: saline with Tween-80.
Setting [5] is: dose: 200.0 mg/kg/injection, schedule: Q04DX003 (ip), vehicle: saline with Tween-80.
[6] abbreviates: dose: 400.0 mg/kg/injection, schedule: Q04DX003 (ip), vehicle: saline with Tween-80.
Setting [7] is: dose: 60.0 mg/kg/injection, schedule: Q01DX005 (ip), vehicle: saline with Tween-80.
The mark [8] stands for this setting: dose: 120.0 mg/kg/injection, schedule: Q01DX005 (ip), vehicle: saline with Tween-80.
Where [9] appears, read: dose: 50.0 mg/kg/injection, schedule: Q01DX005 (ip), vehicle: saline with Tween-80.
Where [10] appears, read: dose: 100.0 mg/kg/injection, schedule: Q01DX005 (ip), vehicle: saline with Tween-80.
Where [11] appears, read: dose: 200.0 mg/kg/injection, schedule: Q01DX005 (ip), vehicle: saline with Tween-80.
Setting [12] is: dose: 50.0 mg/kg/injection, schedule: Q01DX009 (ip), vehicle: Klucel (hydroxypropylcellulose) (HPC).

Several values for one entry are separate records, joined by “and”; a condition that tells them apart may be missing. Equal entries are not always repeated. Inconclusive results and toxic doses are left out.

As for `CCCCCc1cc(O)c2c(c1)OC(C)(C)[C@@H]1CCC(C)=C[C@@H]21`, the T/C reads like this: (dose: 1.0 mg/kg/injection, schedule: Q01DX005 (iv), vehicle: other) 100 % of control; (dose: 1.5 mg/kg/injection, schedule: Q02HX016 (oral), vehicle: olive oil, sesame oil, peanut oil) 92 % of control; (dose: 2.0 mg/kg/injection, schedule: Q01DX005 (iv), vehicle: other) 100 % of control; (dose: 3.0 mg/kg/injection, schedule: Q02HX016 (oral), vehicle: olive oil, sesame oil, peanut oil) 92 % of control; (dose: 4.0 mg/kg/injection, schedule: Q01DX005 (iv), vehicle: other) 100 % of control; (dose: 8.0 mg/kg/injection, schedule: Q01DX005 (iv), vehicle: other) 92 % of control. The T/C by setting is: (dose: 16.0 mg/kg/injection, schedule: Q01DX005 (iv), vehicle: other) 100 % of control; (dose: 32.0 mg/kg/injection, schedule: Q01DX005 (iv), vehicle: other) 109 % of control and 96 % of control; (dose: 64.0 mg/kg/injection, schedule: Q01DX005 (iv), vehicle: other) 99 % of control and 100 % of control; (dose: 128.0 mg/kg/injection, schedule: Q01DX005 (iv), vehicle: other) 99 % of control; (dose: 256.0 mg/kg/injection, schedule: Q01DX005 (iv), vehicle: other) 99 % of control.

As to `O=C1c2ccccc2C(O)N1CCc1c[nH]c2ccccc12` (centres undefined), the T/C is, setting by setting: (dose: 50.0 mg/kg/injection, schedule: Q01DX005 (ip), vehicle: Klucel (hydroxypropylcellulose) (HPC)) 93 % of control; (dose: 100.0 mg/kg/injection, schedule: Q01DX005 (ip), vehicle: Klucel (hydroxypropylcellulose) (HPC)) 95 % of control; (dose: 200.0 mg/kg/injection, schedule: Q01DX005 (ip), vehicle: Klucel (hydroxypropylcellulose) (HPC)) 91 % of control.

For `CC1=CS(=O)c2ccccc2N1C` (centres undefined), the T/C by setting is: (dose: 50.0 mg/kg/injection, schedule: Q04DX002 (ip), vehicle: Klucel (hydroxypropylcellulose) (HPC)) 97 % of control; (dose: 100.0 mg/kg/injection, schedule: Q04DX002 (ip), vehicle: Klucel (hydroxypropylcellulose) (HPC)) 100 % of control; under setting [1], 109 % of control; (dose: 200.0 mg/kg/injection, schedule: Q04DX002 (ip), vehicle: Klucel (hydroxypropylcellulose) (HPC)) 101 % of control; under setting [2], 124 % of control; (dose: 400.0 mg/kg/injection, schedule: Q04DX002 (ip), vehicle: Klucel (hydroxypropylcellulose) (HPC)) 108 % of control. Also, the T/C under setting [3] was 117 % of control.

In the case of `O=C(Nc1cccc2cccnc12)C1=C(Nc2cccc3cccnc23)CCC1`, the T/C (dose: 6.25 mg/kg/injection, schedule: Q01DX009 (ip), vehicle: saline with Tween-80) is 107 % of control; the T/C (dose: 12.5 mg/kg/injection, schedule: Q01DX009 (ip), vehicle: saline with Tween-80) is 100 % of control; the T/C (dose: 25.0 mg/kg/injection, schedule: Q01DX009 (ip), vehicle: saline with Tween-80) was 98 % of control; the T/C (dose: 50.0 mg/kg/injection, schedule: Q01DX009 (ip), vehicle: saline with Tween-80) was 92 % of control; the T/C (dose: 200.0 mg/kg/injection, schedule: Q01DX009 (ip), vehicle: saline with Tween-80) was 98 % of control.

As for `CC(C)C1=CC2=CCC3C(C)(C(N)=O)CCCC3(C)C2CC1CC#N` (centres undefined), the T/C runs as follows: under setting [4], 95 % of control; under setting [5], 91 % of control; under setting [6], 91 % of control.

With `O=C(Nc1ccccc1C(=O)Nc1nccs1)c1ccccc1`, the T/C is, setting by setting: under setting [7], 86 % of control; under setting [8], 93 % of control; (dose: 240.0 mg/kg/injection, schedule: Q01DX005 (ip), vehicle: saline with Tween-80) 98 % of control.

For `CC(=Nc1c[nH]c(=O)[nH]c1=O)c1cc(C)ccc1O`, the T/C was 105 % of control under setting [1], 101 % of control under setting [2] and 104 % of control under setting [3].

For the compound `CCCN=C(N)c1ccc(N=C(N)c2ccc(N=C(N)c3ccc(C(N)=NCCC)cc3)cc2)cc1`, the T/C (dose: 0.08 mg/kg/injection, schedule: Q01DX009 (ip), vehicle: saline) was 100 % of control; the T/C (dose: 0.15 mg/kg/injection, schedule: Q01DX009 (ip), vehicle: saline) was 100 % of control; the T/C (dose: 0.3 mg/kg/injection, schedule: Q01DX009 (ip), vehicle: saline) is 110 % of control; the T/C (dose: 1.25 mg/kg/injection, schedule: Q01DX009 (ip), vehicle: saline) was 154 % of control; the T/C (dose: 2.5 mg/kg/injection, schedule: Q01DX009 (ip), vehicle: saline) was 118 % of control; the T/C (dose: 5.0 mg/kg/injection, schedule: Q04DX003 (ip), vehicle: saline with Tween-80) is 95 % of control. Moreover, the T/C is 150 % of control (dose: 10.0 mg/kg/injection, schedule: Q01DX009 (ip), vehicle: saline); 100 % of control (dose: 10.0 mg/kg/injection, schedule: Q04DX003 (ip), vehicle: saline with Tween-80); 172 % of control (dose: 15.0 mg/kg/injection, schedule: Q01DX009 (ip), vehicle: saline); 200 % of control (dose: 20.0 mg/kg/injection, schedule: Q01DX009 (ip), vehicle: saline with Tween-80); 100 % of control (dose: 20.0 mg/kg/injection, schedule: Q04DX003 (ip), vehicle: saline with Tween-80).

With `COc1ccc(C2N(c3ccccc3)CCN2c2ccccc2)cc1`, the T/C is, setting by setting: under setting [9], 99 % of control; under setting [10], 93 % of control; under setting [11], 93 % of control.

Consider `c1ccc(C2CC(c3ccc(C4=NN(c5ccccc5)C(c5ccccc5)C4)cc3)=NN2c2ccccc2)cc1` (centres undefined), for which the T/C by setting is: (dose: 25.0 mg/kg/injection, schedule: Q04DX003 (ip), vehicle: saline with Tween-80) 102 % of control; (dose: 50.0 mg/kg/injection, schedule: Q04DX003 (ip), vehicle: saline with Tween-80) 91 % of control; under setting [4], 87 % of control; under setting [5], 89 % of control; under setting [6], 100 % of control.

As for `CC(C)c1cc(C2C(=O)c3ccccc3C2=O)cc(C(C)C)c1O`, the T/C was 106 % of control (dose: 100.0 mg/kg/injection, schedule: Q04DX002 (ip), vehicle: saline); 114 % of control (dose: 200.0 mg/kg/injection, schedule: Q04DX002 (ip), vehicle: saline); 108 % of control (dose: 400.0 mg/kg/injection, schedule: Q04DX002 (ip), vehicle: saline).

As to `CCc1cccc(C)c1NC(=O)C(=O)C(C#N)c1ccc(CC#N)cc1` (centres undefined), the T/C was 101 % of control under setting [7] and 100 % of control under setting [8].

On to `COC(=O)c1nc(=S)[nH]c(C(=O)OC)c1C(=O)c1cccc2ccccc12`, for which the T/C (dose: 60.0 mg/kg/injection, schedule: Q01DX005 (ip), vehicle: Klucel + Tween-80) was 102 % of control; the T/C (dose: 120.0 mg/kg/injection, schedule: Q01DX005 (ip), vehicle: Klucel + Tween-80) was 95 % of control; the T/C (dose: 240.0 mg/kg/injection, schedule: Q01DX005 (ip), vehicle: Klucel + Tween-80) was 92 % of control.

Turning to `CC(c1c[nH]c2ccccc12)N1CCCCC1` (centres undefined), the T/C by setting is: (dose: 12.5 mg/kg/injection, schedule: Q01DX009 (ip), vehicle: Klucel (hydroxypropylcellulose) (HPC)) 109 % of control; (dose: 25.0 mg/kg/injection, schedule: Q01DX009 (ip), vehicle: Klucel (hydroxypropylcellulose) (HPC)) 115 % of control; under setting [12], 113 % of control.

Regarding `CCC(Oc1c2ccoc2c(OC)c2oc(=O)cc(O)c12)C(=O)O` (centres undefined), the T/C is 108 % of control under setting [9], 95 % of control under setting [10] and 100 % of control under setting [11].

For `N#Cc1ccc(N2C(=O)c3ccc(C(O)(C(F)(F)F)C(F)(F)F)cc3C2=O)cc1C#N`, the T/C was 103 % of control under setting [12]; 103 % of control (dose: 100.0 mg/kg/injection, schedule: Q01DX009 (ip), vehicle: Klucel (hydroxypropylcellulose) (HPC)); 99 % of control (dose: 200.0 mg/kg/injection, schedule: Q01DX009 (ip), vehicle: Klucel (hydroxypropylcellulose) (HPC)).

With `O=C(O)CCCCCCCCCCCCCCC1C=CCC1` (centres undefined), the T/C (dose: 100.0 mg/kg/injection, schedule: Q01DX001 (ip), vehicle: saline) is 101 % of control; the T/C (dose: 200.0 mg/kg/injection, schedule: Q01DX001 (ip), vehicle: saline) is 100 % of control; the T/C (dose: 400.0 mg/kg/injection, schedule: Q01DX001 (ip), vehicle: saline) is 98 % of control.
